Experimental data taken from patent US20080125498A1, “TREATMENT OF NEURODEGENERATIVE DISEASES AND CONDITIONS USING PAR1 ANTAGONISTS” (priority 2001, published 2008).
Ends that are not written are not given here.

Experiments:
[1] = test system: cortical astrocytes; assay: Astrocyte proliferation by BrdU incorporation; assay type: cell-based, mouse; settings: for number of BrdU-positive cells: astrocyte cultures from wild type mice, 3 or 30 micromolar, 24 hours
Procedure: Cortical astrocytes from wild type and PAR1−/− knockout mice were either untreated (control) or treated for 24 hours with a 3 or 30 micromolar concentration of the peptide TFLLR-NH2 (SEQ ID NO: 1), which selectively activates PAR1. Cells were pulse-labeled with BrdU for the final 2 hours of culture.

[2] = test system: PAR1; assay type: cell-based, rat
[3] = test system: PAR1; assay: PI hydrolysis in hippocampal slices; assay type: cell-based, mouse; settings: wild type hippocampus / hippocampal slices
Excerpt: PAR1 is a seven transmembrane G-protein coupled receptor that stimulates G-alpha-q to initiate phosphatidyl inositol (PI) hydrolysis. To ensure that PAR1 is functional in regions of the brain that are subject to ischemic damage in the mouse transient focal ischemia model, we tested the ability of several activators of PAR1 to initiate PI hydrolysis (Chung et al., 1997) in the hippocampus and striatum.
Since tPA activates plasminogen to form plasmin, we tested whether exogenously applied tPA could activate endogenous plasminogen in brain slices to form plasmin and activate PAR1.

[4] = test system: NMDA receptor; assay: Whole cell patch recording of NMDA-evoked currents in hippocampal slice CA1 pyramidal neurons; assay type: cell-based, rat; settings: for average peak potentiation by thrombin: 1.4 mM Mg2+, n=19
[5] = test system: NMDA receptor; assay: Whole cell patch recording of NMDA-evoked currents in hippocampal CA1 pyramidal cells of wild-type and PAR1-/- mice; assay type: cell-based, mouse
[6] = test system: hippocampal slices; assay: Transmitted light measurements in hippocampal slices (extracellular volume fraction); assay type: cell-based, rat; settings: 3-7 U/ml thrombin, 10-20 minutes
Procedure: Rat hippocampal slices were prepared as described above, and were bathed in a submerged chamber with 0.5 micromolar TTX, and 3-7 U/ml thrombin in 0.5 micromolar TTX applied for 10-20 minutes. The intensity of transmitted light (450-490 nm) through hippocampal slices was monitored as an indication of extracellular volume fraction (Andrew and MacVicar, Imaging cell volume changes and neuronal excitation in the hippocampal slice. Neuroscience 62: 371-383, 1994). Images were recorded using a Princeton Micromax CCD camera (Trenton, N.J.; 0.2 sec exposure every 20 to 40 sec) and analyzed using Axon Imaging Workbench 2.1 software (Foster City, Calif.). Intensity was expressed as I/Io where Io is the intensity of transmitted light prior to treatment. Solutions were made hyperosmotic by addition of 30 mM mannitol, which can produce a 10% expansion of the extracellular volume fraction (McBain et al. Regional variation of extracellular space in hippocampus. Science 249: 674-677, 1990). Hypoosmotic solutions were obtained by addition of 10% v/v water.

[7] = test system: NR1 subunit; assay: NMDA receptor subunit immunoblots of thrombin-treated brain membranes; assay type: biochemical, rat
Procedure: (§1) NMDA receptor subunit immunoblots. Human embryonic kidney (HEK) cells were maintained in DMEM supplemented with 0.5 mM glutamine, 1 mM pyruvate, penicillin, streptomycin, and 10% fetal bovine serum in a humidified environment with 5% CO2, and transfected with 1 microgram/ml of NR1 or 1:2 microgram/ml NR1:NR2 cDNA. Cells were washed in ice-cold HEPES buffered saline (HBS), scraped on ice, and membranes isolated by centrifugation at 12,000×g. […] Adult rat brain regions were dissected, frozen in liquid nitrogen, homogenized in ice-cold HEPES buffered saline (HBS), centrifuged, and stored at −20° C. Membranes were resuspended in HBS and treated with thrombin or buffer for 30 min at 37° C. Samples were centrifuged, and the membrane pellet resuspended in 2% sodium dodecylsulphate (SDS), 62.5 mM Tris, 10% glycerol, 5% beta-mercaptoethanol, 0.05% bromophenol blue (pH 6.8); some samples were treated with IOU DNase for 10 min at 37° C. SDS/polyacrylamide gel electrophoresis (SDS/PAGE) and protein blotting to Immobilon-P membranes was performed as described (Lau and Huganir, Differential tyrosine phosphorylation of N-methyl-D-aspartate receptor subunits. J Biol Chem 270: 20036-20041, 1995). Membranes were blocked for 30 min in 0.2 M Tris base, 1.37 M NaCl, pH 7.4, containing 5% nonfat dry milk, and incubated overnight at 4° C. in primary antibodies: NR1 mAb54.1 (gift from Dr. S. Heinemann, Salk Institute, La Jolla Calif.), NR1 alt-C-terminal (Upstate Biotechnology, Lake Placid, N.Y.), NR2A C-terminal (Chemicon, Temecula, Calif.), or NR2B C-terminal (Upstate Biotechnology). Membranes were washed 3×, and incubated with HRP-conjugated goat anti-mouse or goat anti-rabbit antibodies (1:10,000), washed 3×, and developed using enhanced chemiluminescence. The percent of receptor cleaved by thrombin was determined using densitometry.

[8] = test system: NMDA receptor; assay: Two electrode voltage clamp of recombinant NMDA receptors with or without PAR1 in Xenopus oocytes; assay type: cell-based, Xenopus laevis
Procedure: Expression and recording of NMDA and PAR1 receptor function in Xenopus laevis oocvtes. cRNA was synthesized from linearized template cDNA according to manufacturer specifications (Ambion, Austin, Tex.). Xenopus oocytes were removed from ovaries of female frogs anesthetized with 0.3% 3-aminobenzoic acid ethylester. Groups of 20-30 stage V-VI oocytes were incubated in 292 U/ml Worthington (Freehold, N.J.) Type IV collagenase for 2 hours with slow shaking. The oocytes were rinsed in Barth's solution, and stored at 17° C. in Barth's solution supplemented with 100 microgram/ml gentamycin and 40 microgram/ml streptomycin. Control oocytes were injected with 3 ng NR1 subunit and 7 ng NR2B subunit. Other oocytes were injected with the NMDA receptor subunits plus 3 ng PAR1 cRNA. Two electrode voltage clamp recordings were made 3-7 days post-injection. Oocytes were continually perfused with recording solution (in mM, 90 NaCl, 1 KCl, 10 HEPES, pH 7.4) and held under voltage clamp at −30 to −50 mV with an OC-725B amplifier (Warner Instruments, Hamden, Conn.). Recording solution was supplemented with 1.0 mM CaCl2 during initial impalement of the oocytes and subsequently 0.5 mM BaCl2 during recording to reduce the calcium-activated chloride current endogenous to oocytes. […] NMDA receptor currents were evoked by 20 micromolar glutamate/10 micromolar glycine perfused for 0.5-1 minute. […] Expression of PAR1 protein was verified by a thrombin or SFLLRN-stimulated rapidly desensitizing inward current at −30 mV that reflects the Ca^2+-activated Cl^− current endogenous to the oocyte. To test the ability of thrombin to modify NMDA receptor function in oocytes, recordings of receptor function were made both before and after a 15-60 min incubation in recording solution supplemented with thrombin in Eppendorf tubes at room temperature. […] Oocytes with responses less than 50 nA were not included in the analysis.

[9] = target: T1, NR1 subunit (Rattus norvegicus, UniProt P35439); assay: Thrombin cleavage of recombinant NR1 subunits in HEK 293 cells (immunoblot); assay type: biochemical; settings: 10-1000 U/ml thrombin
T1 construct: expressed in transfected cells; host or cells: HEK 293 cells, transient transfection; isolated membranes treated with thrombin
Procedure: as §1, with “Membranes were blocked for 30 min in 0.2 M Tris base, 1.37 M NaCl, pH 7.4, containing 5% nonfat dry milk, and incubated overnight at 4° C. in primary antibodies: NR1 mAb54.1 (gift from Dr. S. Heinemann, Salk Institute, La Jolla Calif.), NR1 alt-C-terminal (Upstate Biotechnology, Lake Placid, N.Y.), NR2A C-terminal (Chemicon, Temecula, Calif.), or NR2B C-terminal (Upstate Biotechnology). Membranes were washed 3×, and incubated with HRP-conjugated goat anti-mouse or goat anti-rabbit antibodies (1:10,000), washed 3×, and developed using enhanced chemiluminescence.” left out

[10] = test system: NR1 subunit; assay: NMDA receptor subunit immunoblots of thrombin-treated brain membranes; assay type: biochemical, rat; remark: listed apart in the source
[11] = test system: PAR1; assay: Free intracellular calcium in cultured astrocytes (Fluo-3 AM); assay type: cell-based, mouse

pertussis toxin
inhibition of PAR1-induced astrocyte proliferation ([1]; 24-hour pre-treatment, counting of BrdU-positive cells): could be inhibited

NC(N)=NCCC[C@H](NC(=O)[C@@H]1CCCN1C(=O)[C@H](N)Cc1ccccc1)C(=O)CCl [PPACK, D-Phe-Pro-Arg-chloromethylketone]
response magnitude to thrombin (F/Fo) with PPACK [2]: 1.1±0.04 fold

thrombin
PI hydrolysis [3]: increased PI hydrolysis
peak potentiation of NMDA responses ([4]; 30 nM (3 U/ml) thrombin, -70 mV, within 20 minutes, n=21): 2.07±0.27 fold
average peak potentiation by thrombin ([4]; -40 mV): 1.48±0.11 fold
average peak potentiation by thrombin ([4]; -70 mV): 2.10±0.29 fold
thrombin potentiation of the NMDA response ([4]; cells excluded for low input resistance or increased series resistance, n=12): 1.8±0.2 fold
thrombin-induced potentiation ([4]; cells held at 0 mV, briefly stepped to -70 mV, n=7): 2.7±0.7 fold
NMDA receptor responses ([5]; PAR1-/- C57B1/6 mice, thrombin application): did not significantly increase
potentiation of responses to pressure-applied NMDA plus glycine ([5]; wild-type C57B1/6 mice, 3 U/ml thrombin): robust potentiation
intensity of transmitted light I/Io ([6]; stratum pyramidale): 1.00±0.01
intensity of transmitted light I/Io ([6]; stratum radiatum): 1.01±0.01
NR1 subunits cleaved ([7]; 1-3 micromolar thrombin, all brain regions except striatum): 100%
molecular weight shift of NR2A or NR2B subunits ([7]; brain membranes, 3-300 U/ml thrombin): did not induce any observable molecular weight shift
cleavage of NR1 subunits ([7]; cerebellar, cortical and brainstem membranes, 300 nM thrombin (30 U/ml)): insensitive to cleavage
NR1 cleaved ([7]; striatal membranes, 30 nM thrombin (3 U/ml)): 50%
maximal observed cleavage of NR1 ([7]; striatum, 1-3 micromolar thrombin): 52%
potentiation of NR1-1a/NR2A receptors coexpressed with PAR1 ([8]; 3 nM thrombin, n=6): 1.68±0.11 fold
potentiation of NR1-1a/NR2A receptors coexpressed with PAR1 ([8]; 300 μM thrombin (so in the source), n=7): 1.37±0.08 fold
current response amplitude after incubation ([8]; 300-1000 nM thrombin, 60 minutes, n=7, buffer controls 78±5%): 42±9%
ratio of NMDA receptor-mediated current after to before application ([8]; NR1-1a/NR2B, oocytes without PAR1, n=9): 0.87±0.04
PAR1 potentiation of NR1-1a(C798A)/NR2B receptors ([8]; control oocytes lacking PAR1, n=5): 0.98±0.05
cleavage of NR1 subunit ([8]; low concentrations of thrombin (0.3-3 nM)): did not produce any cleavage
response amplitude of NR1/NR2A and NR1/NR2B receptors vs buffer ([8]; oocytes lacking thrombin receptors, 3 U/ml, 15 minutes, 23 C): no significant difference
PAR1 potentiation of NR1-1a(C798A)/NR2B receptors ([8]; oocytes with PAR1, n=7): 1.35±0.07
potentiation of NR2A containing receptors ([8]; presence of 10 micromolar EDTA, n=12): 2.01±0.17 fold
amplitude of NMDA receptor responses, NR1-1a with NR2c or NR2D ([8]; thrombin activation of PAR1): unaffected
Fluo-3 fluorescence in soma and dendrites [2]: robust increase
cleavage of recombinant NR1-1b and NR1-1b/NR2B receptors [9]: cleaved both homomeric NR1-1b receptors
predicted cleavage of NR1 protein ([10]; 15 minute treatment of slices at 23 C, 3 U/ml, extrapolated assuming linear time, Q10 2.5): 1%
NR1 cleavage product in CA1 region microdissected from slices ([10]; 15 minutes of 3 U/ml thrombin application at 23 C): no NR1 cleavage product was observed
NR1 subunit cleaved ([10]; hippocampal membranes, 30 nM thrombin (3 U/ml), 1 hour at 37 C): 20%

hirudin [reference compound]
potentiation by thrombin of NMDA responses in presence of hirudin ([4]; 3 U/ml thrombin + 100 ATU hirudin, average potentiation 12-19 min post treatment, n=5): 0.96±0.23 fold
block of NR1 cleavage by 30 nM thrombin ([7]; striatal membranes, 100 ATU hirudin): blocked cleavage

TFLLR-NH2 [specific PAR1 agonist peptide]
PI hydrolysis [3]: increased PI hydrolysis
number of BrdU-positive cells [1]: increases the number of BrdU-positive cells
number of BrdU-positive cells ([1]; listed as TFLLR): can stimulate astrocyte proliferation
free intracellular calcium ([11]; cultured astrocytes from PAR1-/- knockout mice): does not increase free intracellular calcium
free intracellular calcium ([11]; cultured astrocytes from wild type mice): increases free intracellular calcium
